12 compounds from US9593108B2, “Compounds and methods for antiviral treatment” (PTC Therapeutics, Inc., priority 2009, dated 2017) can be followed below.

In general, IC50 refers to the concentration that inhibits the measured activity by half. Read a low IC50 as greater potency in that assay.

The structures appear in SMILES notation.

The test system of this experiment is HCV replicon RNA (GenBank Accession No. AJ242654). Description: HCV Replicon Assay (replicon RNA reduction and/or Fluc reporter signal). In kind it is cell-based, Hepatitis C virus. The note with it: Hepatitis C virus, 72 h, replicon-containing cells cultured with test compound for up to 3 days. The text has this:
The lack of reliable and readily accessible cell-culture and small animal models permissive for HCV replication has limited the development of new anti-HCV agents. Self-replicating subgenomic HCV systems, termed HCV replicons, have been described and have been widely used to assess the efficacy of anti-HCV inhibitors (see Blight K J, et al., 2000, Efficient initiation of HCV RNA replication in cell culture. Science 290:1972-1974; Blight K J, et al., 2002, Highly permissive cell lines for subgenomic and genomic hepatitis C virus RNA replication. J Virol 76:13001-13014; Ikeda M, et al., 2002. Selectable subgenomic and genome-length dicistronic RNAs derived from an infectious molecular clone of the HCV-N strain of hepatitis C virus replicate efficiently in cultured Huh7 cells. J Virol 76:2997-3006; Lohmann V, et al., 1999, Replication of subgenomic hepatitis C virus RNAs in a hepatoma cell line. Science 285:110-113; Pietschmann T, et al., 2002, Persistent and transient replication of full-length hepatitis C virus genomes in cell culture. J Virol 76:4008-4021; and, Pietschmann T, et al., 2001, Characterization of cell lines carrying self-replicating hepatitis C virus RNAs. J Virol 75:1252-1264).
As described in U.S. Pat. No. 6,630,343, HCV inhibitors are analyzed in the bicistronic replicon by quantitating replicon RNA (GenBank Accession No. AJ242654) reduction and/or the Fluc reporter signal. Replicon-containing cells may be cultured with a test compound of the present invention for up to 3 days. Interferon (IFN) is used as a positive control. In general, the replicon IC50 values shown in Table 1 represent IC50 values determined by replicon RNA reduction.
Background: Replicon systems follow genome replication, usually without infectious particles.
Consider `N#Cc1c(-c2ccc(S(=O)(=O)NC3(C(F)(F)F)CC3)cc2)n(C2CCC2)c2ncc(C3CC3)cc12` [Cpd 123, 4-(3-cyano-1-cyclobutyl-5-cyclopropyl-1H-pyrrolo[2,3-b]pyridin-2-yl)-N-[1-(trifluoromethyl)cyclopropyl]benzenesulfonamide], for which the IC50 is under 500 nM.
As for `CC(C)(C)NS(=O)(=O)c1ccc(-c2c(C#N)c3cc(C4CC4)cnc3n2C2CCC2)nc1` [Cpd 126, N-tert-butyl-6-(3-cyano-1-cyclobutyl-5-cyclopropyl-1H-pyrrolo[2,3-b]pyridin-2-yl)pyridine-3-sulfonamide], the IC50 was under 500 nM.
As for `N#Cc1c(-c2ccc(S(=O)(=O)NC(CF)CF)cn2)n(C2CCC2)c2ncc(C3CC3)cc12` [Cpd 131, 6-(3-cyano-1-cyclobutyl-5-cyclopropyl-1H-pyrrolo[2,3-b]pyridin-2-yl)-N-(1,3-difluoropropan-2-yl)pyridine-3-sulfonamide], the figure is under 500 nM; as for `CC(C)NS(=O)(=O)c1ccc(-c2c(C#N)c3cc(C4CC4)cnc3n2C2CCC2)cn1` [Cpd 135, 5-(3-cyano-1-cyclobutyl-5-cyclopropyl-1H-pyrrolo[2,3-b]pyridin-2-yl)-N-(propan-2-yl)pyridine-2-sulfonamide], under 500 nM.
As for `Cc1ccc2c(C#N)c(-c3ccc(S(=O)(=O)NC(C)(C)C(F)(F)F)cc3)n(C3CCC3)c2n1` [Cpd 139, 4-(3-cyano-1-cyclobutyl-6-methyl-1H-pyrrolo[2,3-b]pyridin-2-yl)-N-(1,1,1-trifluoro-2-methylpropan-2-yl)benzenesulfonamide], the figure is 500 to 2000 nM; as for `C[C@H](NS(=O)(=O)c1ccc(-c2c(C#N)c3ccc(C4CC4)nc3n2C2CCC2)cc1)C(F)(F)F` [Cpd 149, 4-(3-cyano-1-cyclobutyl-6-cyclopropyl-1H-pyrrolo[2,3-b]pyridin-2-yl)-N-[(2S)-1,1,1-trifluoropropan-2-yl]benzenesulfonamide], under 500 nM.
Turning to `C[C@@H](NS(=O)(=O)c1ccc(-c2c(C#N)c3ccc(C4CC4)nc3n2C2CCC2)cc1)C(F)(F)F` [Cpd 150, 4-(3-cyano-1-cyclobutyl-6-cyclopropyl-1H-pyrrolo[2,3-b]pyridin-2-yl)-N-[(2R)-1,1,1-trifluoropropan-2-yl]benzenesulfonamide], the IC50 is under 500 nM.
In turn, `C[C@H](NS(=O)(=O)c1cnc(-c2c(C#N)c3ccc(C4CC4)nc3n2C2CCC2)nc1)C(F)(F)F` [Cpd 153, 2-(3-cyano-1-cyclobutyl-6-cyclopropyl-1H-pyrrolo[2,3-b]pyridin-2-yl)-N-[(2S)-1,1,1-trifluoropropan-2-yl]pyrimidine-5-sulfonamide] showed an IC50 of under 500 nM.
Consider `CCc1cnc2c(c1)c(C#N)c(-c1ccc(S(=O)(=O)N[C@@H](C)C(F)(F)F)cn1)n2C1CCC1` [Cpd 157, 6-(3-cyano-1-cyclobutyl-5-ethyl-1H-pyrrolo[2,3-b]pyridin-2-yl)-N-[(2S)-1,1,1-trifluoropropan-2-yl]pyridine-3-sulfonamide], for which the half-maximal inhibitory concentration (IC50) was under 500 nM.
`CCc1cnc2c(c1)c(C#N)c(-c1ccc(S(=O)(=O)N[C@H](C)C(F)(F)F)cn1)n2C1CCC1` [Cpd 158, 6-(3-cyano-1-cyclobutyl-5-ethyl-1H-pyrrolo[2,3-b]pyridin-2-yl)-N-[(2R)-1,1,1-trifluoropropan-2-yl]pyridine-3-sulfonamide] came in with an IC50 of under 500 nM.
Then `CCc1cnc2c(c1)c(C#N)c(-c1ncc(S(=O)(=O)N[C@@H](C)C(F)(F)F)cn1)n2C1CCC1` [Cpd 159, 2-(3-cyano-1-cyclobutyl-5-ethyl-1H-pyrrolo[2,3-b]pyridin-2-yl)-N-[(2S)-1,1,1-trifluoropropan-2-yl]pyrimidine-5-sulfonamide], with under 500 nM; and `CCc1cnc2c(c1)c(C#N)c(-c1ncc(S(=O)(=O)N[C@H](C)C(F)(F)F)cn1)n2C1CCC1` [Cpd 160, 2-(3-cyano-1-cyclobutyl-5-ethyl-1H-pyrrolo[2,3-b]pyridin-2-yl)-N-[(2R)-1,1,1-trifluoropropan-2-yl]pyrimidine-5-sulfonamide], with under 500 nM.
